Experimental data as given in publication PMC9484358 (Archives of Pharmacal Research, 2022).

Tested on: SARS-CoV-2 spike pseudovirus
Assay: organism not typed
Type: cell-based

| SMILES | IC50 (read-out: IC50 value) [µM] | inhibition at 50 µM (read-out: Inhibition rate (%), 50 µM) [%] | inhibition at 100 µM (read-out: Inhibition rate (%), 100 µM) [%] |
| --- | --- | --- | --- |
| Cc1cc(-c2ccc(/N=N/c3ccc4c(S(=O)(=O)O)cc(S(=O)(=O)O)c(N)c4c3O)c(C)c2)ccc1/N=N/c1ccc2c(S(=O)(=O)O)cc(S(=O)(=O)O)c(N)c2c1O [Evans blue] | 26.9 | – | – |
| CC1(C)[C@@H](O[C@H]2O[C@H](C(=O)O)[C@@H](O)[C@H](O)[C@H]2O[C@@H]2O[C@H](C(=O)O)[C@@H](O)[C@H](O)[C@H]2O)CC[C@]2(C)[C@H]3C(=O)C=C4[C@@H]5C[C@@](C)(C(=O)O)CC[C@]5(C)CC[C@@]4(C)[C@]3(C)CC[C@@H]12 [Glycyrrhizic acid] | – | 4.01 ± 7.03 | 11.2 ± 6.96 |
